Results from ChEMBL document CHEMBL1201862, “PubChem BioAssay data set” (2004).
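Results reflect a 48-hour exposure of cells in 96-well plates to compound at five concentrations. At the GI50, growth is halved.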 Active and inactive are the calls of the source. Cut-off read from the data, not from the text of the source: active = GI50 up to about 1.1 µM and inactive = higher.

Experiments:
Test in all cases: NCI anticancer screen, dose series, 48 h
786-0 = system: 786-0
A498 = system: A498
A549 = system: A549
ACHN = system: ACHN
CAKI-1 = system: CAKI-1
CCRF-CEM = system: CCRF-CEM
COLO 205 = system: COLO 205
DLD-1 = system: DLD-1
DMS-114 = system: DMS-114
DMS-273 = system: DMS-273
EKVX = system: EKVX
HCC 2998 = system: HCC 2998
HCT-116 = system: HCT-116
HCT-15 = system: HCT-15
HL-60 = system: HL-60
HOP-18 = system: HOP-18
HOP-62 = system: HOP-62
HOP-92 = system: HOP-92
HT-29 = system: HT-29
IGROV-1 = system: IGROV-1
K562 = system: K562
KM-20L2 = system: KM-20L2
KM12 = system: KM12
LOX IMVI = system: LOX IMVI
M19-MEL = system: M19-MEL
MOLT-4 = system: MOLT-4
Malme-3M = system: Malme-3M
NCI-H226 = system: NCI-H226
NCI-H23 = system: NCI-H23
NCI-H460 = system: NCI-H460
NCI-H522 = system: NCI-H522
OVCAR-3 = system: OVCAR-3
OVCAR-4 = system: OVCAR-4
OVCAR-5 = system: OVCAR-5
OVCAR-8 = system: OVCAR-8
RPMI-8226 = system: RPMI-8226
RXF 393 = system: RXF 393
SF-268 = system: SF-268
SF-295 = system: SF-295
SF-539 = system: SF-539
SK-MEL-28 = system: SK-MEL-28
SK-MEL-2 = system: SK-MEL-2
SK-MEL-5 = system: SK-MEL-5
SK-OV-3 = system: SK-OV-3
SN12C = system: SN12C
SNB-19 = system: SNB-19
SNB-75 = system: SNB-75
SNB-78 = system: SNB-78
SW-620 = system: SW-620
TK-10 = system: TK-10
U-251 = system: U-251
UACC-257 = system: UACC-257
UO-31 = system: UO-31
XF498 = system: XF498

C/C=C/C=C\C(=O)C1c2cccc(O)c2C(=O)c2c(O)cc(C)cc21 (centres undefined)
GI50 (786-0): 2.03 µM (inactive) | GI50 (A498): 2.74 µM (inactive) | GI50 (A549): 0.719 µM (active) | GI50 (ACHN): 1.35 µM (inactive) | GI50 (CAKI-1): 2.08 µM (inactive) | GI50 (CCRF-CEM): 1.27 µM (inactive) | GI50 (COLO 205): 1.64 µM (inactive) | GI50 (DLD-1): 1.9 µM (inactive) | GI50 (DMS-114): 0.383 µM (active) | GI50 (DMS-273): 1.65 µM (inactive) | GI50 (EKVX): 3.38 µM (inactive) | GI50 (HCC 2998): 0.306 µM (active) | GI50 (HCT-116): 1.52 µM (inactive) | GI50 (HCT-15): 1.76 µM | GI50 (HL-60): 0.294 µM (active) | GI50 (HOP-18): 1.88 µM (inactive) | GI50 (HOP-62): 2.04 µM (inactive) | GI50 (HOP-92): 1.39 µM (inactive) | GI50 (HT-29): 2.06 µM (inactive) | GI50 (IGROV-1): 1.57 µM (inactive) | GI50 (K562): 0.356 µM (active) | GI50 (KM-20L2): 1.98 µM (inactive) | GI50 (KM12): 0.425 µM (active) | GI50 (LOX IMVI): 1.79 µM (inactive) | GI50 (M19-MEL): 0.828 µM (active) | GI50 (MOLT-4): 2.92 µM (inactive) | GI50 (Malme-3M): 1.68 µM (inactive) | GI50 (NCI-H226): 1.11 µM (active) | GI50 (NCI-H23): 1.76 µM (inactive) | GI50 (NCI-H460): 0.406 µM (active) | GI50 (NCI-H522): 1.66 µM (inactive) | GI50 (OVCAR-3): 1.02 µM (active) | GI50 (OVCAR-4): 1.7 µM (inactive) | GI50 (OVCAR-5): 1.82 µM (inactive) | GI50 (OVCAR-8): 1.81 µM (inactive) | GI50 (RPMI-8226): 2.14 µM (inactive) | GI50 (RXF 393): 1.37 µM (inactive) | GI50 (SF-268): 0.705 µM (active) | GI50 (SF-295): 0.957 µM (active) | GI50 (SF-539): 0.432 µM (active) | GI50 (SK-MEL-28): 1.69 µM (inactive) | GI50 (SK-MEL-2): 1.01 µM (active) | GI50 (SK-MEL-5): 1.39 µM (inactive) | GI50 (SK-OV-3): 1.43 µM (inactive) | GI50 (SN12C): 2.33 µM (inactive) | GI50 (SNB-19): 0.442 µM (active) | GI50 (SNB-75): 1.29 µM (inactive) | GI50 (SNB-78): 1.65 µM (inactive) | GI50 (SW-620): 1.19 µM (inactive) | GI50 (TK-10): 1.7 µM (inactive) | GI50 (U-251): 0.446 µM (active) | GI50 (UACC-257): 1.83 µM (inactive) | GI50 (UO-31): 1.71 µM (inactive) | GI50 (XF498): 0.232 µM (active)
